Test results: patent publication US11225477B2, “Inhibitors of influenza virus replication, application methods and uses thereof” (SUNSHINE LAKE PHARMA CO., LTD., priority 2015, dated 2022)

Key:
[1] = SD, rat, in vivo; for F: po, 5 mg/kg
Protocol: (§1) The compounds disclosed herein were administered in form of a saline solution containing 5% DMSO, 5% Kolliphor HS 15 and 90% Saline. […] Plasma samples were collected and stored at −20° C. or −70° C. until LC/MS/MS analysis.

[2] = in vivo; conditions: SD, rat
Protocol: as §1

[3] = system: virus H1N1 A/Weiss/43; assay: microbe, parasite or virus in culture; type: cell-based; conditions: Influenza A virus, 120 h; MDCK cells, H1N1 A/Weiss/43, Scheme 2: 8 concentrations 50 nM to 0.023 nM, 5 days, CCK-8

SMILES	F [1]	CL ([1]; iv, 1 mg/kg)	AUC(0-inf) ([2]; iv, 1 mg/kg)	AUC(0-t) ([2]; iv, 1 mg/kg)	Cmax ([2]; iv, 1 mg/kg)	Tmax ([2]; iv, 1 mg/kg)	Vd ([2]; iv, 1 mg/kg)	half-life ([2]; iv, 1 mg/kg)	AUC(0-inf) ([2]; po, 5 mg/kg)	AUC(0-t) ([2]; po, 5 mg/kg)	Cmax ([2]; po, 5 mg/kg)	Tmax ([2]; po, 5 mg/kg)	half-life ([2]; po, 5 mg/kg)	EC50 [3]	clearance ([2]; iv, 1 mg/kg)
O=C(O)C1C2CCC(CC2)C1Nc1nc(-c2c[nH]c3ncc(F)cc23)ncc1F (racemic) [Control VX-787 (racemization), (+/−)-trans-3-((5-fluoro-2-(5-fluoro-1H-pyrrolo[2,3-b]pyridin-3-yl)pyrimidin-4-yl)amino)bicyclo[2.2.2]octane-2-carboxylic acid, reference compound]	58.4%														
O=C(O)C1C2CCC(CC2)C1Nc1cc(-c2ccco2)nc(-c2c[nH]c3ncc(F)cc23)n1 (racemic) [Example 9, (+/−)-trans-3-((2-(5-fluoro-1H-pyrrolo[2,3-b]pyridin-3-yl)-6-(furan-2-yl)pyrimidin-4-yl)amino)bicyclo[2.2.2]octane-2-carboxylic Acid]	47.5%	5.86 L/h/kg	7.35 µg·h/mL	7.26 µg·h/mL	10.9 µg/mL	0.083 h	0.551 L/kg	1.52 h	17.5 µg·h/mL	17.4 µg·h/mL	5.27 µg/mL	0.5 h	3.15 h	0.066 nM	
O=C(O)C1C2CCC(CC2)C1Nc1cc(-c2cc3ccccc3o2)nc(-c2c[nH]c3ncc(F)cc23)n1 (racemic) [Example 16, (+/−)-trans-3-((6-(benzofuran-2-yl)-2-(5-fluoro-1H-pyrrolo[2,3-b]pyridin-3-yl)pyrimidin-4-yl)amino)bicyclo[2.2.2]octane-2-carboxylic Acid]														0.54 nM	
O=C(O)C1C2CCC(CC2)C1Nc1cc(-c2cc3ccccc3s2)nc(-c2c[nH]c3ncc(F)cc23)n1 (racemic) [Example 17, (+/−)-trans-3-((6-(benzo[b]thiophen-2-yl)-2-(5-fluoro-1H-pyrrolo[2,3-b]pyridin-3-yl)pyrimidin-4-yl)amino)bicyclo[2.2.2]octane-2-carboxylic Acid]	66.4%		2.52 µg·h/mL	2.51 µg·h/mL	4.42 µg/mL	0.083 h	1.49 L/kg	1.12 h	8.36 µg·h/mL	8.27 µg·h/mL	2.66 µg/mL	0.5 h	0.911 h	0.54 nM	0.397 L/h/kg
O=C(O)C1C2CCC(CC2)C1Nc1cc(-c2cccc3c2oc2ccccc23)nc(-c2c[nH]c3ncc(F)cc23)n1 (racemic) [Example 18, (+/−)-trans-3-((6-(dibenzo[b,d]furan-4-yl)-2-(5-fluoro-1H-pyrrolo[2,3-b]pyridin-3-yl)pyrimidin-4-yl)amino)bicyclo[2.2.2]octane-2-carboxylic Acid]	43.1%		3.19 µg·h/mL	3.13 µg·h/mL	4.47 µg/mL	0.083 h	0.598 L/kg	4.37 h	6.88 µg·h/mL	6.84 µg·h/mL	1.69 µg/mL	2 h	3.71 h		0.318 L/h/kg
O=C(O)C1C2CCC(CC2)C1Nc1cc(-c2cccs2)nc(-c2c[nH]c3ncc(F)cc23)n1 (racemic) [Example 23, (+/−)-trans-3-((2-(5-fluoro-1H-pyrrolo[2,3-b]pyridin-3-yl)-6-(thiophen-2-yl)pyrimidin-4-yl)amino)bicyclo[2.2.2]octane-2-carboxylic Acid]														0.104 nM	
CC(C)n1ccc2c(NC3C4CCC(CC4)C3C(=O)O)nc(-c3c[nH]c4ncc(F)cc34)nc21 (racemic) [Example 25, (+/−)-trans-3-((2-(5-fluoro-1H-pyrrolo[2,3-b]pyridin-3-yl)-7-isopropyl-7H-pyrrolo[2,3-d]pyrimidin-4-yl)amino)bicyclo[2.2.2]octane-2-carboxylic Acid]														0.26 nM	
O=C(O)C1C2CCC(CC2)C1Nc1nc(-c2c[nH]c3ncc(F)cc23)nc(-c2ccco2)c1F (racemic) [Example 49, (+/−)-trans-3-((5-fluoro-2-(5-fluoro-1H-pyrrolo[2,3-b]pyridin-3-yl)-6-(furan-2-yl)pyrimidin-4-yl)amino)bicyclo[2.2.2]octane-2-carboxylic Acid]														0.068 nM	
O=C(O)C1C2CCC(CC2)C1Nc1nc(-c2c[nH]c3ncc(F)cc23)nc(-c2cc3ccccc3o2)c1F (racemic) [Example 54, (+/−)-trans-3-((6-(benzofuran-2-yl)-5-fluoro-2-(5-fluoro-1H-pyrrolo[2,3-b]pyridin-3-yl)pyrimidin-4-yl)amino)bicyclo[2.2.2]octane-2-carboxylic Acid]														0.261 nM	
O=C(O)C1C2CCC(CC2)C1Nc1nc(-c2c[nH]c3ncc(F)cc23)nc(-c2cc3ccccc3s2)c1F (racemic) [Example 55, (+/−)-trans-3-((6-(benzo[b]thiophen-2-yl)-5-fluoro-2-(5-fluoro-1H-pyrrolo [2,3-b]pyridin-3-yl)pyrimidin-4-yl)amino)bicyclo[2.2.2]octane-2-carboxylic Acid]														0.874 nM	
O=C(O)C1C2CCC(CC2)C1Nc1nc(-c2c[nH]c3ncc(F)cc23)nc(C#Cc2ccccc2)c1F (racemic) [Example 63, (+/−)-trans-3-((5-fluoro-2-(5-fluoro-1H-pyrrolo[2,3-b]pyridin-3-yl)-6-phenylethynyl)pyrimidin-4-yl)amino)bicyclo[2.2.2]octane-2-carboxylic Acid]	65%		4.75 µg·h/mL	4.71 µg·h/mL	4.99 µg/mL	0.083 h	0.416 L/kg	3.85 h	15.4 µg·h/mL	15.3 µg·h/mL	3.28 µg/mL	2 h	3.59 h		0.213 L/h/kg
O=C(O)C1C2CCC(CC2)C1Nc1cc(C2CC2)nc(-c2c[nH]c3ncc(F)cc23)n1 (racemic) [Example 68, (+/−)-trans-3-((6-cyclopropyl-2-(5-fluoro-1H-pyrrolo[2,3-b]pyridin-3-yl)pyrimidin-4-yl)amino)bicyclo[2.2.2]octane-2-carboxylic Acid]	60.1%		2.88 µg·h/mL	2.76 µg·h/mL	3.75 µg/mL	0.083 h	0.551 L/kg	2.01 h	8.33 µg·h/mL	8.31 µg·h/mL	2.96 µg/mL	0.417 h	3.24 h		0.352 L/h/kg
Cc1nc2[nH]cc(-c3nc(NC4C5CCC(CC5)C4C(=O)O)cc(-c4ccccc4)n3)c2cc1F (racemic) [Example 80, (+/−)-trans-3-((2-(5-fluoro-6-methyl-1H-pyrrolo[2,3-b]pyridin-3-yl)-6-phenylpyrimidin-4-yl)amino)bicyclo[2.2.2]octane-2-carboxylic Acid]	62.5%		3.38 µg·h/mL	3.32 µg·h/mL	5.63 µg/mL	0.083 h	1.5 L/kg	1.53 h	10.6 µg·h/mL	10.1 µg·h/mL	3.13 µg/mL	0.833 h	1.48 h		0.296 L/h/kg
O=C(O)[C@H]1C2CCC(CC2)C1Nc1cc(-c2ccccc2)nc(-c2c[nH]c3ncc(F)cc23)n1 (stereo in doubt) [Example 4a, (2S,3S)-3-((2-(5-fluoro-1H-pyrrolo[2,3-b]pyridin-3-yl)-6-phenylpyrimidin-4-yl)amino)bicyclo[2.2.2]octane-2-carboxylic Acid]														0.17 nM	
O=C(O)[C@H]1C2CCC(CC2)C1Nc1cc(-c2ccco2)nc(-c2c[nH]c3ncc(F)cc23)n1 (stereo in doubt) [Example 9a, (2S,3S)-3-((2-(5-fluoro-1H-pyrrolo[2,3-b]pyridin-3-yl)-6-(furan-2-yl)pyrimidin-4-yl)amino)bicyclo[2.2.2]octane-2-carboxylic Acid]														0.039 nM	
O=C(O)[C@H]1C2CCC(CC2)C1Nc1cc(-c2ccc([N+](=O)[O-])o2)nc(-c2c[nH]c3ncc(F)cc23)n1 (stereo in doubt) [Example 24a, (2S,3S)-3-((2-(5-fluoro-1H-pyrrolo[2,3-b]pyridin-3-yl)-6-(5-nitrofuran-2-yl)pyrimidin-4-yl)amino)bicyclo[2.2.2]octane-2-carboxylic Acid]														0.744 nM	
CC(C)(C)[C@@H](CC(=O)O)Nc1nc(-c2c[nH]c3ncc(F)cc23)nc(-c2ccco2)c1F [Example 61, (R)-3-((5-fluoro-2-(5-fluoro-1H-pyrrolo[2,3-b]pyridin-3-yl)-6-(furan-2-yl)pyrimidin-4-yl)amino)-4,4-dimethylpentanoic Acid]	53.1%		4.05 µg·h/mL	4.03 µg·h/mL	8.54 µg/mL	0.083 h	0.585 L/kg	0.542 h	10.7 µg·h/mL	10.4 µg·h/mL	2.71 µg/mL	1.5 h	5.95 h		0.25 L/h/kg
O=C(O)[C@H]1C2CCC(CC2)[C@@H]1Nc1cc(-c2ccco2)nc(-c2c[nH]c3nc(F)ccc23)n1 [Example 73, (2S,3S)-3-((2-(6-fluoro-1H-pyrrolo[2,3-b]pyridin-3-yl)-6-(furan-2-yl)pyrimidin-4-yl)amino)bicyclo[2.2.2]octane-2-carboxylic Acid]	42.6%		24.8 µg·h/mL	24.2 µg·h/mL	14.8 µg/mL	0.083 h	0.212 L/kg	1.41 h	52.8 µg·h/mL	50.6 µg·h/mL	9.3 µg/mL	1.5 h	5.58 h		0.0409 L/h/kg
CC(C)n1ccc2c(N[C@H]3C4CCC(CC4)[C@@H]3C(=O)O)nc(-c3c[nH]c4ncc(F)cc34)nc21 [Example 78, (2S,3S)-3-((2-(5-fluoro-1H-pyrrolo[2,3-b]pyridin-3-yl)-7-isopropyl-7H-pyrrolo [2,3-d]pyrimidin-4-yl)amino)bicyclo[2.2.2]octane-2-carboxylic Acid]														0.236 nM	
